# Patent publication US11591365B2, “BCL9 peptides and variants thereof” (WntRx Pharmaceuticals Inc., priority 2017, dated 2023)
# *1 amine or outer side, *2 acyl side, *3 side chain or, on linkers, in order; H or OH if unused. Where a SMILES comes first, the peptide text is derived from it. Bridges are numbered along the chain shown (N, C = ends). [ ]: non-standard residue; d: D form. Azetidine3carboxylic = O=C(C1CN([*:1])C1)[*:2]; 2Nal = N[C@@H](Cc1ccc2ccccc2c1)C(=O)O; d2Nal = N[C@H](Cc1ccc2ccccc2c1)C(=O)O; NMeR = CN[C@@H](CCCNC(=N)N)C(=O)O; hArg = N=C(N)NCCCC[C@H](N)C(=O)O; tBuAla = CC(C)(C)C[C@H](N)C(=O)O; Cha = N[C@@H](CC1CCCCC1)C(=O)O; Cba = N[C@@H](CC1CCC1)C(=O)O; S5 = C=CCCC[C@](C)(N)C(=O)O
# Tested on: Colo320DM
# Assay: Colo320DM cell viability
# Assay type: cell-based, human
# Text: In some embodiments, a polypeptide described herein inhibits binding of BLC9 to β-catenin when assessed in a cell-viability assay. In some embodiments, the cell-viability assay is a CellTiterGlo luminescent assay, wherein the viability of cells is quantitatively measured. Various cell lines, transformed cell lines or primary cells derived from a healthy subject or subject suffering from a disease can be used in this assay.
row,IC50,Structure (SMILES)
1,2.53 µM,"CC[C@H](C)[C@@H]1NC(=O)[C@@](C)(NC(=O)[C@H](CCCNC(=N)N)NC(=O)[C@H](CC(C)C)NC(=O)[C@@H](NC(=O)[C@H](CCC(N)=O)NC(=O)[C@H](CC(C)C)NC(=O)[C@H](CO)NC(=O)[C@H](CCCNC(=N)N)NC(=O)[C@H](CCC(N)=O)NC(=O)[C@H](CCCCNC(=N)N)NC(=O)[C@H](Cc2c[nH]cn2)NC(C)=O)[C@@H](C)O)CCCC=CCCC[C@@](C)(C(=O)N[C@@H](CC2CCCCC2)C(=O)N[C@@H](Cc2ccc3ccccc3c2)C(N)=O)NC(=O)[C@H](CCCNC(=N)N)NC(=O)[C@H](CCC(N)=O)NC1=O [SEQ ID NO: 183, H(homoArg)QRSLQTLRXIQRX(Cha)(2-Nal)] (Ac-H[hArg]QRSLQTLR[S5]IQR[S5][Cha][2Nal]-NH2; staple 11-15)"
2,> 5 µM,"CC[C@H](C)[C@@H]1NC(=O)[C@@](C)(NC(=O)[C@H](CCCNC(=N)N)NC(=O)[C@H](CC(C)C)NC(=O)[C@@H](NC(=O)[C@H](CCC(N)=O)NC(=O)[C@H](CC(C)C)NC(C)=O)[C@@H](C)O)CCCC=CCCC[C@@](C)(C(=O)N[C@@H](CC2CCC2)C(=O)N[C@@H](Cc2ccc3ccccc3c2)C(N)=O)NC(=O)[C@H](CCCNC(=N)N)NC(=O)[C@H](CCC(N)=O)NC1=O [SEQ ID NO: 107, LQTLRXIQRX(CBA)(2-Nal)] (Ac-LQTLR[S5]IQR[S5][Cba][2Nal]-NH2; staple 6-10)"
3,1.51 µM,"CC[C@H](C)[C@@H]1NC(=O)[C@@](C)(NC(=O)[C@H](CCCNC(=N)N)NC(=O)[C@H](CC(C)C)NC(=O)[C@@H](NC(=O)[C@H](CCC(N)=O)NC(=O)[C@H](CC(C)C)NC(=O)[C@H](CO)NC(=O)[C@H](CCCNC(=N)N)NC(=O)[C@H](CCC(=O)O)NC(=O)[C@H](CCC(N)=O)NC(=O)[C@H](Cc2c[nH]cn2)NC(C)=O)[C@@H](C)O)CCCC=CCCC[C@@](C)(C(=O)N[C@@H](CC(C)C)C(=O)N[C@@H](Cc2ccc3ccccc3c2)C(N)=O)NC(=O)[C@H](CCCNC(=N)N)NC(=O)[C@H](CCC(N)=O)NC1=O [SEQ ID NO: 11, HQERSLQTLRXIQRXL(2-Nal)] (Ac-HQERSLQTLR[S5]IQR[S5]L[2Nal]-NH2; staple 11-15)"
4,3.28 µM,"CC[C@H](C)[C@@H]1NC(=O)[C@@](C)(NC(=O)[C@H](CCCNC(=N)N)NC(=O)[C@H](CC(C)C)NC(=O)[C@@H](NC(=O)[C@H](CCC(N)=O)NC(=O)[C@H](CC(C)C)NC(=O)[C@H](CO)NC(=O)[C@H](CCCNC(=N)N)NC(=O)[C@H](CCC(N)=O)NC(=O)[C@H](CCCNC(=N)N)NC(=O)[C@H](Cc2c[nH]cn2)NC(C)=O)[C@@H](C)O)CCCC=CCCC[C@@](C)(C(=O)N[C@@H](CC2CCCCC2)C(=O)N[C@H](Cc2ccc3ccccc3c2)C(N)=O)NC(=O)[C@H](CCCNC(=N)N)NC(=O)[C@H](CCC(N)=O)NC1=O [SEQ ID NO: 188, HRQRSLQTLRXIQRX(Cha)(2DNal)] (Ac-HRQRSLQTLR[S5]IQR[S5][Cha][d2Nal]-NH2; staple 11-15)"
5,> 5 µM,"CC[C@H](C)[C@@H]1NC(=O)[C@@](C)(NC(=O)[C@H](CCCNC(=N)N)NC(=O)[C@H](CC(C)C)NC(=O)[C@@H](NC(=O)[C@H](CCC(N)=O)NC(=O)[C@H](CC(C)C)NC(=O)[C@H](CO)NC(=O)[C@H](CCCNC(=N)N)NC(=O)[C@H](CCC(N)=O)NC(=O)[C@H](CCCNC(=N)N)NC(=O)[C@H](Cc2c[nH]cn2)NC(C)=O)[C@@H](C)O)CCCC=CCCC[C@@](C)(C(=O)N2CC(C(=O)N[C@@H](Cc3ccc4ccccc4c3)C(N)=O)C2)NC(=O)[C@H](CCCNC(=N)N)NC(=O)[C@H](CCC(N)=O)NC1=O [SEQ ID NO: 178, HRQRSLQTLRXIQRX(Aze)(2-Nal)] (Ac-HRQRSLQTLR[S5]IQR[S5][Azetidine3carboxylic][2Nal]-NH2; staple 11-15)"
6,> 5 µM,"CC[C@H](C)[C@@H]1NC(=O)[C@@](C)(NC(=O)[C@H](CCCNC(=N)N)N(C)C(=O)[C@H](CC(C)C)NC(=O)[C@@H](NC(=O)[C@H](CCC(N)=O)NC(=O)[C@H](CC(C)C)NC(=O)[C@H](CO)NC(=O)[C@H](CCCNC(=N)N)NC(=O)[C@H](CCC(=O)O)NC(=O)[C@H](CCCNC(=N)N)NC(=O)[C@H](Cc2c[nH]cn2)NC(C)=O)[C@@H](C)O)CCCC=CCCC[C@@](C)(C(=O)N[C@@H](CC2CCC2)C(=O)N[C@@H](Cc2ccc3ccccc3c2)C(=O)O)NC(=O)[C@H](CCCNC(=N)N)NC(=O)[C@H](CCC(N)=O)NC1=O [SEQ ID NO: 152, HRERSLQTL(N-methylR)XIQRX(CBA)(2-Nal)] (Ac-HRERSLQTL[NMeR][S5]IQR[S5][Cba][2Nal]-OH; staple 11-15)"
7,2.87 µM,"CC[C@H](C)[C@@H]1NC(=O)[C@@](C)(NC(=O)[C@H](CCCNC(=N)N)NC(=O)[C@H](CC(C)C)NC(=O)[C@@H](NC(=O)[C@H](CCC(N)=O)NC(=O)[C@H](CC(C)C)NC(=O)[C@H](CO)NC(=O)[C@H](CCCNC(=N)N)NC(=O)[C@H](CCC(N)=O)NC(=O)[C@H](CCCNC(=N)N)NC(=O)[C@H](Cc2c[nH]cn2)NC(C)=O)[C@@H](C)O)CCCC=CCCC[C@@](C)(C(=O)N[C@@H](CC(C)(C)C)C(=O)N[C@@H](Cc2ccc3ccccc3c2)C(N)=O)NC(=O)[C@H](CCCNC(=N)N)NC(=O)[C@H](CCC(N)=O)NC1=O [SEQ ID NO: 191, HRQRSLQTLRXIQRX(β-tBu-Ala)(2-Nal)] (Ac-HRQRSLQTLR[S5]IQR[S5][tBuAla][2Nal]-NH2; staple 11-15)"
8,3.24 µM,"CC[C@H](C)[C@@H]1NC(=O)[C@@](C)(NC(=O)[C@H](CCCNC(=N)N)NC(=O)[C@H](CC(C)C)NC(=O)[C@@H](NC(=O)[C@H](CCC(N)=O)NC(=O)[C@H](CC(C)C)NC(=O)[C@H](CO)NC(=O)[C@H](CCCNC(=N)N)NC(=O)[C@H](CCC(=O)O)NC(=O)[C@H](CCCNC(=N)N)NC(=O)[C@H](Cc2c[nH]cn2)NC(C)=O)[C@@H](C)O)CCCC=CCCC[C@@](C)(C(=O)N[C@@H](CC(C)C)C(=O)N[C@@H](Cc2ccc3ccccc3c2)C(N)=O)NC(=O)[C@H](C)NC(=O)[C@H](CCC(N)=O)NC1=O [SEQ ID NO: 28, HRERSLQTLRXIQAXL(2-Nal)] (Ac-HRERSLQTLR[S5]IQA[S5]L[2Nal]-NH2; staple 11-15)"
9,3.34 µM,"CC[C@H](C)[C@@H]1NC(=O)[C@@](C)(NC(=O)[C@H](CCCNC(=N)N)NC(=O)[C@H](CC(C)C)NC(=O)[C@@H](NC(=O)[C@]2(C)CCCC=CCCC[C@](C)(NC(=O)[C@H](CCCNC(=N)N)NC(=O)[C@H](Cc3c[nH]cn3)NC(C)=O)C(=O)N[C@@H](CCCNC(=N)N)C(=O)N[C@@H](CO)C(=O)N[C@@H](CC(C)C)C(=O)N2)[C@@H](C)O)CCCC=CCCC[C@@](C)(C(=O)N[C@@H](CC2CCC2)C(=O)N[C@@H](Cc2ccc3ccccc3c2)C(N)=O)NC(=O)[C@H](CCCNC(=N)N)NC(=O)[C@H](CCC(N)=O)NC1=O [SEQ ID NO: 94, HRXRSLXTLRZIQRZ(CBA)(2-Nal)] (Ac-HR[S5]RSL[S5]TLR[S5]IQR[S5][Cba][2Nal]-NH2; staple 3-7, 11-15)"
10,2.63 µM,"CC[C@H](C)[C@@H]1NC(=O)[C@@](C)(NC(=O)[C@H](CCCNC(=N)N)NC(=O)[C@H](CC(C)C)NC(=O)[C@@H](NC(=O)[C@H](CCC(N)=O)NC(=O)[C@H](CC2CCC2)NC(=O)[C@H](CO)NC(=O)[C@H](CCCNC(=N)N)NC(=O)[C@H](CCC(N)=O)NC(=O)[C@H](CCCNC(=N)N)NC(=O)[C@H](Cc2c[nH]cn2)NC(C)=O)[C@@H](C)O)CCCC=CCCC[C@@](C)(C(=O)N[C@@H](CC2CCC2)C(=O)N[C@@H](Cc2ccc3ccccc3c2)C(N)=O)NC(=O)[C@H](CCCNC(=N)N)NC(=O)[C@H](CCC(N)=O)NC1=O [SEQ ID NO: 156, HRQRS(CBA)QTLRXIQRX(CBA)(2-Nal)] (Ac-HRQRS[Cba]QTLR[S5]IQR[S5][Cba][2Nal]-NH2; staple 11-15)"
